From US12492188B2, “1H-benzo[D]imidazole derivatives as TLR9 inhibitors for the treatment of fibrosis” (BRISTOL-MYERS SQUIBB COMPANY, priority 2020, dated 2025)
Where two headings read alike, the source gives them in different places.

Experiments:
Type in all cases: cell-based
[1] = target: T1, human TLR9 (Homo sapiens, UniProt Q9NR96); test: TLR9 inhibition reporter assay (HEK-Blue cells, secreted embryonic alkaline phosphatase reporter)
T1 construct: host or cells: HEK-Blue cells (HEK293-derived reporter line)
T1 sequence (Q9NR96 26-1032): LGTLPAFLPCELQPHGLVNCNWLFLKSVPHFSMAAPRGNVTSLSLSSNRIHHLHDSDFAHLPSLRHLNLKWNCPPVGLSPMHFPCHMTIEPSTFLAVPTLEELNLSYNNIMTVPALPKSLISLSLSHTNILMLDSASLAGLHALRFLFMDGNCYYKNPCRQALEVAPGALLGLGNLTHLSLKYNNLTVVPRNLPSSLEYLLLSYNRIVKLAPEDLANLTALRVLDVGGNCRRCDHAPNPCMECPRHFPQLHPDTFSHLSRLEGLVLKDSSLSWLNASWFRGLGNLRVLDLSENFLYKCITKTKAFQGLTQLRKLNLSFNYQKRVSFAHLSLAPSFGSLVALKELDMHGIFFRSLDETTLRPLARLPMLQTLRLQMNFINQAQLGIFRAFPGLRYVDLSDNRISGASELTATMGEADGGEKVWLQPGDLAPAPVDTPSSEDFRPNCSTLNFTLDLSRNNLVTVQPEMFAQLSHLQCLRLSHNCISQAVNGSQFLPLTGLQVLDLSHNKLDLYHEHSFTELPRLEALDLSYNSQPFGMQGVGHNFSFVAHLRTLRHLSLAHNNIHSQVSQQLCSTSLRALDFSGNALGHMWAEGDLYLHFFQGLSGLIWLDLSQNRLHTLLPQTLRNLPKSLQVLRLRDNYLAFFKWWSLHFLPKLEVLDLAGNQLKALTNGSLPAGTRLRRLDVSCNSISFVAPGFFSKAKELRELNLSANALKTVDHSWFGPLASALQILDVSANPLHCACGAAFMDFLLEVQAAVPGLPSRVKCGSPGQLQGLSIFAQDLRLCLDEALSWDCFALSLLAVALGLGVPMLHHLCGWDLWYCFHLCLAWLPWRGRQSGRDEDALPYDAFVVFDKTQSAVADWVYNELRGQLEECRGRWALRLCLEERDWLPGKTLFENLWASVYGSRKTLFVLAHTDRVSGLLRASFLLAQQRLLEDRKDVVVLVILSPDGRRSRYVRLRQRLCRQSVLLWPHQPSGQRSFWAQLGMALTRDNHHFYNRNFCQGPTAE
Method in brief: (§1)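 Inhibitors are tested in dose response (0.05 nM–50 μM) on HEK-Blue reporter cells expressing human TLR7, TLR8 or TLR9. After 30 min at room temperature, each line is stimulated with its own agonist (gardiquimod 7.5 μM, R848 15.9 μM or ODN2006 5 nM, final) and SEAP is measured 22 h later.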

[2] = target: T2, human TLR8 (Homo sapiens, UniProt Q9NR97); test: TLR8 inhibition reporter assay (HEK-Blue cells, secreted embryonic alkaline phosphatase reporter); settings: HEK-Blue cells overexpressing human TLR8, stimulated with R848 15.9 μM; read-out: TLR 8 IC50
T2 construct: host or cells: HEK-Blue cells (HEK293-derived reporter line)
T2 sequence (Q9NR97 27-1041): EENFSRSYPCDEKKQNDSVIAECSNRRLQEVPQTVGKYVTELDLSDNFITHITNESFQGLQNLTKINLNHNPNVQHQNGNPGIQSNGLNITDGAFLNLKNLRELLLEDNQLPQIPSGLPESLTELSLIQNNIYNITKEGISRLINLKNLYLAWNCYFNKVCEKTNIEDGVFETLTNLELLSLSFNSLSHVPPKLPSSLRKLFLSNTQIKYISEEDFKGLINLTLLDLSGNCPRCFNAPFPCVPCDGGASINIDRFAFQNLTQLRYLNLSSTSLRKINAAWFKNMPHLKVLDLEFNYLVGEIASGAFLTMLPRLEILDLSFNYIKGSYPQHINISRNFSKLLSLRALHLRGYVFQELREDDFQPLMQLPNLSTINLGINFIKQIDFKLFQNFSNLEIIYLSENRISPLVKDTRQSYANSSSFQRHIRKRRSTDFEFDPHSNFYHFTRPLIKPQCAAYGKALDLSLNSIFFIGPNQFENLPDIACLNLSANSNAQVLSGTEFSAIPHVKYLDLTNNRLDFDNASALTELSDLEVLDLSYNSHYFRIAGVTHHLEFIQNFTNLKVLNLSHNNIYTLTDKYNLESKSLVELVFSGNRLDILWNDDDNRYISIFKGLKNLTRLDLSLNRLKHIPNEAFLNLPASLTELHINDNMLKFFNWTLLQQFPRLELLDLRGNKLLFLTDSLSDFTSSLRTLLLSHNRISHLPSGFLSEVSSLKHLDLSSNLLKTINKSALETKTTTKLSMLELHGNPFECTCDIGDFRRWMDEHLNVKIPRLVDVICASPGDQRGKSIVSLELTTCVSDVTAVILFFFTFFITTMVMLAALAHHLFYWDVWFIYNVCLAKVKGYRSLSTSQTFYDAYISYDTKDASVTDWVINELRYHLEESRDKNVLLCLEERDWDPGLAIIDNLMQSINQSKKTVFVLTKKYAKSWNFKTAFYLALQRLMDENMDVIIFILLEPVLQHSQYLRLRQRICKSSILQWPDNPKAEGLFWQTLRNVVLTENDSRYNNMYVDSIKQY
Method in brief: as §1

[3] = target: T3, human TLR7 (Homo sapiens, UniProt Q9NYK1); test: TLR7 inhibition reporter assay (HEK-Blue cells, secreted embryonic alkaline phosphatase reporter); settings: HEK-Blue cells overexpressing human TLR7, stimulated with gardiquimod 7.5 μM; read-out: TLR 7 IC50
T3 construct: host or cells: HEK-Blue cells (HEK293-derived reporter line)
T3 sequence (Q9NYK1 27-1049): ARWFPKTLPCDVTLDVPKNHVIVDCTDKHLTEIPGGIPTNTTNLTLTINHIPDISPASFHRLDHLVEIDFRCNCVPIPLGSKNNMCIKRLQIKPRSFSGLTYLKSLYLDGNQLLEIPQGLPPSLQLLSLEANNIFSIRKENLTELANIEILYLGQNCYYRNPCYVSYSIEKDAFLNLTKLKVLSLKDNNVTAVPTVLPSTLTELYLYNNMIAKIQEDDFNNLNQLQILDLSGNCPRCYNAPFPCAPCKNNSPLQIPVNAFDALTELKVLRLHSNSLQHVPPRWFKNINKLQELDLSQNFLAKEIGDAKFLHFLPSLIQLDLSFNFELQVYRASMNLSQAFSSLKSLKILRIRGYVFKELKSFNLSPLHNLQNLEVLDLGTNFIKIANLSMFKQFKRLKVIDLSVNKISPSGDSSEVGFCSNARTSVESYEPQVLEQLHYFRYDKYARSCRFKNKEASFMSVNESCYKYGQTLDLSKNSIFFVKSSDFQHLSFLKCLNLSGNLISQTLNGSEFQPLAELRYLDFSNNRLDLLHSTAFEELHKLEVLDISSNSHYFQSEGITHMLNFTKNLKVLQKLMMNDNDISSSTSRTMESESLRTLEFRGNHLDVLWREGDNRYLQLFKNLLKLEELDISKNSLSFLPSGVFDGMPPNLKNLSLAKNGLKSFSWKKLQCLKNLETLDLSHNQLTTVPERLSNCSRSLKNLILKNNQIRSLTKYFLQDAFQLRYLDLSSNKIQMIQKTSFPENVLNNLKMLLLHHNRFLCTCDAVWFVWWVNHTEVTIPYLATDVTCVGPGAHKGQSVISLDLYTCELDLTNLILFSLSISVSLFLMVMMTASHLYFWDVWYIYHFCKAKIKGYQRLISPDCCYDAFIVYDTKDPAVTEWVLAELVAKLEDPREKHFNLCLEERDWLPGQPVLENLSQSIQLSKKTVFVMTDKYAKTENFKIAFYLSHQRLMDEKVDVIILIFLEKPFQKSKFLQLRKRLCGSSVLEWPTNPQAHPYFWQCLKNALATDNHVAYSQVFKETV
Method in brief: as §1

[4] = HEK-Blue cells overexpressing human TLR9, stimulated with ODN2006 5 nM, 22 hour incubation, reporter readout
[5] = HEK-Blue cells overexpressing human TLR9, stimulated with ODN2006 5 nM, read-out: TLR 9 IC50

For Cn1c(-c2ccc(S(C)(=O)=O)cc2)nc2c(F)cc(C3CCN(C4CCCN(C5COC5)CC4)CC3)cc21 (single isomer, unassigned) [Example 108, 4-fluoro-1-methyl-2-(4-(methylsulfonyl)phenyl)-6-(1-(1-(oxetan-3-yl)azepan-4-yl)piperidin-4-yl)-1H-benzo[d]imidazole], the IC50 [1, 4] was 260 nM, the IC50 [1, 5] was 25.8 nM and the IC50 [2] was over 50000 nM. For the same compound, the IC50 [3] was 24000 nM.
Cc1cc(C2CCN(C3CC4CCC(C3)N4C(C)C)CC2)cc2c1nc(-c1ccc(S(C)(=O)=O)cc1)n2C (single isomer, unassigned) [Example 85, 6-(1-(8-isopropyl-8-azabicyclo[3.2.1]octan-3-yl)piperidin-4-yl)-1,4-dimethyl-2-(4-(methylsulfonyl)phenyl)-1H-benzo[d]imidazole] showed an IC50 [1, 4] of 110 nM, an IC50 [1, 5] of 106 nM and an IC50 [2] of over 25000 nM. For the same compound, the IC50 [3] was 5700 nM.
With COCCN1CCC(N2CCC(c3cc4c(cc3F)nc(-c3ccc(S(C)(=O)=O)cc3)n4C)CC2)CC1 [Example 227, 5-fluoro-6-(1′-(2-methoxyethyl)-[1,4′-bipiperidin]-4-yl)-1-methyl-2-(4-(methylsulfonyl)phenyl)-1H-benzo[d]imidazole] the IC50 [1] was 410 nM, the IC50 [1, 5] was 407 nM and the IC50 [2] was over 50000 nM. For the same compound, the IC50 [3] was 27400 nM.
For CS(=O)(=O)c1ccc(-c2nc3c(F)cc(C4CCN(C5CC6CCC(C5)N6C5CCC5)CC4)cc3n2C2CC2)cc1 (single isomer, unassigned) [Example 327, 6-(1-(8-cyclobutyl-8-azabicyclo[3.2.1]octan-3-yl)piperidin-4-yl)-1-cyclopropyl-4-fluoro-2-(4-(methylsulfonyl)phenyl)-1H-benzo[d]imidazole], the IC50 [1, 5] was 111 nM, the IC50 ([1]; HEK-Blue human TLR9 reporter cells) was 110 nM and the IC50 [2] was 18400 nM. For the same compound, the IC50 [3] was 2000 nM.
COc1ccc(-c2nc3c(C)cc(C4CC5CCC(C4)N5C4CCN(C5CC5)CC4)cc3n2C)cc1OC (stereo not shown) [Example 51, 6-(8-(1-cyclopropylpiperidin-4-yl)-8-azabicyclo[3.2.1]octan-3-yl)-2-(3,4-dimethoxyphenyl)-1,4-dimethyl-1H-benzo[d]imidazole] was tested, and the IC50 [1, 4] was 130 nM, the IC50 [1, 5] was 130 nM and the IC50 [2] was over 50000 nM. It also gave an IC50 [3] of 20000 nM.
COc1ccc(-c2nc3c(C)cc(C4CCN(C5CCN(C6CC6)CC5)CC4)cc3[nH]2)cc1F [Example 57, 6-(1′-cyclopropyl-[1,4′-bipiperidin]-4-yl)-2-(3-fluoro-4-methoxyphenyl)-4-methyl-1H-benzo[d]imidazole] was tested, and the IC50 [1, 4] was 170 nM, the IC50 [1, 5] was 171 nM and the IC50 [2] was over 50000 nM. The IC50 [3] was 16000 nM.
COc1ccc(-c2nc3ccc(C4CCN(C5CCN(C(C)C)CC5)CC4)cc3n2C(C)C)cc1OC [Example 3, 2-(3,4-dimethoxyphenyl)-1-isopropyl-6-(1′-isopropyl-[1,4′-bipiperidin]-4-yl)-1H-benzo[d]imidazole] was tested, and the IC50 [1, 4] was 170 nM, the IC50 [1, 5] was 169 nM and the IC50 [2] was over 50000 nM. The IC50 [3] was 280 nM.
Work on Cc1cc(C2CCN(C3CC4CCC(C3)N4CC3CCC3)CC2)cc2c1nc(-c1ccc(S(C)(=O)=O)cc1)n2C (single isomer, unassigned) [Example 156, 6-(1-(8-(cyclobutylmethyl)-8-azabicyclo[3.2.1]octan-3-yl)piperidin-4-yl)-1,4-dimethyl-2-(4-(methylsulfonyl)phenyl)-1H-benzo[d]imidazole] yielded an IC50 [1] of 31 nM, an IC50 [1, 5] of 31 nM and an IC50 [2] of over 25000 nM. For the same compound, the IC50 [3] was 8900 nM.
CC(C)N1CCC(N2CCC(c3ccc4nc(-c5ccc(S(C)(=O)=O)cc5)n(C)c4c3F)CC2)CC1 [Example 102, 7-fluoro-6-(1′-isopropyl-[1,4′-bipiperidin]-4-yl)-1-methyl-2-(4-(methylsulfonyl)phenyl)-1H-benzo[d]imidazole] gave an IC50 [1, 4] of 30 nM, an IC50 [2] of over 50000 nM and an IC50 [3] of 9800 nM.
In the case of CS(=O)(=O)c1ccc(-c2nc3ccc(C4CCN(C5CCN(C6COC6)CC5)CC4)c(F)c3[nH]2)cc1 [Example 181, 7-fluoro-2-(4-(methylsulfonyl)phenyl)-6-(1′-(oxetan-3-yl)-[1,4′-bipiperidin]-4-yl)-1H-benzo[d]imidazole], the IC50 [1] is reported as 640 nM, the IC50 [1, 5] is reported as 641 nM and the IC50 [2] is reported as over 50000 nM. It also gave an IC50 [3] of over 50000 nM.
CN(C)C1CCN(Cc2ccc(-c3ccc4nc(-c5cccc(F)c5)n(C)c4c3)cc2)CC1 [Example 377, 1-(4-(2-(3-fluorophenyl)-1-methyl-1H-benzo[d]imidazol-6-yl)benzyl)-N,N-dimethylpiperidin-4-amine] gave an IC50 [1, 4] of 350 nM, an IC50 [1, 5] of 346 nM and an IC50 [2] of 19600 nM. For the same compound, the IC50 [3] was 1300 nM.
In the case of CCn1c(-c2ccc(OC)c(OC)c2)nc2ccc(C3CCN(C4CCN(C(C)C)CC4)CC3)cc21 (single isomer, unassigned) [Example 8, 2-(3,4-dimethoxyphenyl)-1-ethyl-6-(1′-isopropyl-[1,4′-bipiperidin]-4-yl)-1H-benzo[d]imidazole], the IC50 [1, 4] is reported as 210 nM, the IC50 [2] is reported as over 50000 nM and the IC50 [3] is reported as 2500 nM.
